Data on 1 compound can be found in patent US8173145B2, “Formulation containing phosphate derivatives of electron transfer agents” (Vital Health Sciences Pty. Ltd., priority 2000, dated 2012).

This series in a line: foam stability / surface active properties test. The class given is physicochemical. The settings on record: 0.1 g in 10 ml distilled water, shaken; foam examined daily over four days. How it is done: 0.1 g of pure di-sodium mono-tocopheryl phosphate was dissolved in 10 ml of pure distilled water in a 50 ml cylindrical stoppered vessel.

In the case of `Cc1c(C)c2c(c(C)c1OP(=O)([O-])[O-])CC[C@@](C)(CCC[C@H](C)CCC[C@H](C)CCCC(C)C)O2.[Na+].[Na+]` [di-sodium mono-tocopheryl phosphate], the Foam stability entry was “complete stability for one day”.
